Assay results: PubChem BioAssay AID1259408 (Genetic Toxicology Data Bank (GENE-TOX), 2018)
Calls of active or inactive are those of the source. How the calls were made is not given here.

Tested on: GENE-TOX genotoxicity assays, various organisms and cells
Experiment: GENE-TOX mutagenicity studies
Details: for call: Assay Type: In vivo carcinogenicity studies
[1] = Species/Cell Type: Escherichia coli polA (W3119 vs P3478), Assay Type: Rec-assay, DNA effects (bacterial DNA repair), Assay Code: RE1+, Evaluation Type: Evaluation A (Pre-1980)
[2] = Species/Cell Type: Fischer rat embryo (RLV/1706) cells, Assay Type: Cell transformation, viral enhanced, Assay Code: CTR+, Evaluation Type: Evaluation A (Pre-1980)
[3] = Species/Cell Type: Neurospora crassa, Assay Type: Reverse gene mutation, Assay Code: NER+, Evaluation Type: Evaluation A (Pre-1980)
[4] = Species/Cell Type: Saccharomyces cerevisiae, Assay Type: Mitotic recombination or gene conversion, Assay Code: YEH+, Evaluation Type: Evaluation A (Pre-1980)
[5] = Species/Cell Type: Salmonella typhimurium (one or more of the five standard strains: TA98, TA100, TA1535, TA1537, and TA1538), Assay Type: Histidine reverse gene mutation, Ames assay, Assay Code: SAL+, Evaluation Type: Evaluation A (Pre-1980)
[6] = Species/Cell Type: Syrian hamster embryo (SHE) cells, Assay Type: Cell transformation, clonal assay, Assay Code: CTC+, Evaluation Type: Evaluation A (Pre-1980)
[7] = Species/Cell Type: Nonhuman, Assay Type: Sister-chromatid exchange (SCE) in vitro, Assay Code: SC2T, Evaluation Type: Evaluation B (Post-1980)
[8] = Species/Cell Type: Saccharomyces cerevisiae, Assay Type: Mitotic recombination or gene conversion, Assay Code: YEC+, Evaluation Type: Evaluation A (Pre-1980)

Question: How did the mutagenic call (Species/Cell Type: Escherichia coli polA (W3110 vs P3478), Assay Type: Rec-assay, DNA effects (bacterial DNA repair), Assay Code: RE2+, Evaluation Type: Evaluation A (Pre-1980)) turn out when CCC1CO1 (stereo not drawn) was run?
Answer: active; positive

Question: And the mutagenic call [1]?
Answer: active; positive

Question: What about the mutagenic call [2] of the same compound?
Answer: active; positive

Question: What about the mutagenic call (Species/Cell Type: Mouse (BALB/c-3T3) cells, Assay Type: Cell transformation, Assay Code: CTB-, Evaluation Type: Evaluation A (Pre-1980)) of the same compound?
Answer: inactive; negative

Question: What about the mutagenic call [3] of the same compound?
Answer: active; positive

Question: And the call (Species/Cell Type: Nonhuman, Assay Code: CCGT, Evaluation Type: Evaluation A (Pre-1980))?
Answer: no conclusion

Question: What about the mutagenic call [4] of the same compound?
Answer: active; positive

Question: What about the mutagenic call [5] of the same compound?
Answer: active; positive

Question: What about the mutagenic call [6] of the same compound?
Answer: active; positive

Question: With CCCCC/C=C\C/C=C\C/C=C\C/C=C\CCCC(=O)O as the compound, how does the mutagenic call (Species/Cell Type: Human, Assay Type: Sister-chromatid exchange (SCE) in vitro, Assay Code: SC1T, Evaluation Type: Evaluation B (Post-1980)) read?
Answer: no conclusion

Question: What about the mutagenic call (Species/Cell Type: Mammalian polychromatic erythrocytes, Assay Type: Micronucleus test, chromosome aberrations, Assay Code: MNTT, Evaluation Type: Evaluation B (Post-1980)) of the same compound?
Answer: no conclusion

Question: And the mutagenic call [7]?
Answer: no conclusion

Question: COc1ccc(/C=N/NC(=O)c2ccncc2)c(C(=O)O)c1OC was tested. Which mutagenic call (Species/Cell Type: Salmonella typhimurium, Assay Type: Forward and reverse gene mutation, host-mediated assay, Assay Code: HMA-, Evaluation Type: Evaluation A (Pre-1980)) did it give?
Answer: inactive; negative

Question: Which mutagenic call (Species/Cell Type: Drosophila melanogaster, Assay Type: Sex-linked recessive lethal gene mutation, Assay Code: SRL+, Evaluation Type: Evaluation A (Pre-1980)) does the source give for O=NN(CCCl)C(=O)NCCCO here?
Answer: active; positive

Question: And the mutagenic call [8]?
Answer: active; positive

Question: For Nc1c(F)cc(-c2cc(F)c(N)c(F)c2)cc1F, which mutagenic call (Species/Cell Type: Human diploid fibroblasts, Assay Type: Unscheduled DNA synthesis (UDS) in vitro, DNA effects, Assay Code: UDH+*, Activation: With metabolic activation, Evaluation Type: Evaluation A (Pre-1980)) is on record?
Answer: active; positive

Question: What about the mutagenic call (Species/Cell Type: Salmonella typhimurium (one or more of the five standard strains: TA98, TA100, TA1535, TA1537, and TA1538), Assay Type: Histidine reverse gene mutation, Ames assay, Assay Code: SAL+*, Activation: With metabolic activation, Evaluation Type: Evaluation A (Pre-1980)) of the same compound?
Answer: active; positive

Question: With BrBr as the compound, how does the mutagenic call (Species/Cell Type: Allium cepa, Assay Type: Chromosome aberrations, Assay Code: ALC+, Evaluation Type: Evaluation A (Pre-1980)) read?
Answer: active; positive

Question: For ClCc1c2ccccc2c(CCl)c2ccccc12, which mutagenic call [5] is on record?
Answer: active; positive

Question: Which mutagenic call [7] does the source give for COP(N)(=O)SC (stereo not drawn) here?
Answer: no conclusion

Question: Which results are given for NC[C@H]1O[C@H](O[C@H]2[C@H](O)[C@@H](O[C@H]3O[C@H](CO)[C@@H](O)[C@H](N)[C@H]3O)[C@H](N)C[C@@H]2N)[C@H](O)[C@@H](O)[C@@H]1O?
Answer: mutagenic call (Species/Cell Type: Bacillus subtilis (H17 vs M45T), Assay Type: Rec-assay, spot test, DNA effects (bacterial DNA repair), Assay Code: REXT, Evaluation Type: Evaluation A (Pre-1980)): no conclusion; mutagenic call (Species/Cell Type: Escherichia coli polA (W3119 vs P3478), Assay Type: Rec-assay, DNA effects (bacterial DNA repair), Assay Code: RE1-, Evaluation Type: Evaluation A (Pre-1980)): inactive; negative; mutagenic call (Species/Cell Type: Saccharomyces cerevisiae, Assay Type: Mitotic recombination or gene conversion, Assay Code: YEH-, Evaluation Type: Evaluation A (Pre-1980)): inactive; negative

Question: For O=[N+]([O-])c1ccc(N=Nc2c(O)ccc3ccccc23)c([N+](=O)[O-])c1, which mutagenic call [5] is on record?
Answer: active; positive

Question: How did the mutagenic call (Species/Cell Type: Chinese hamster ovary (CHO) cells, Assay Type: Forward gene mutation at the HPRT locus, Assay Code: CHO+, Evaluation Type: Evaluation B (Post-1980)) turn out when CCN(CCCl)CCCNc1c2ccccc2nc2ccccc12 was run?
Answer: active; positive

Question: Nc1cc([N+](=O)[O-])ccc1C(=O)O was tested. Which call (Species/Cell Type: Nonhuman, Assay Code: CCG-, Evaluation Type: Evaluation A (Pre-1980)) did it give?
Answer: inactive; negative

Question: Which mutagenic call (Species/Cell Type: Bacillus subtilis (H17 vs M45), Assay Type: Rec-assay, spot test, DNA effects (bacterial DNA repair), Assay Code: REW-, Evaluation Type: Evaluation A (Pre-1980)) does the source give for [Be+2] here?
Answer: inactive; negative

Question: Which mutagenic call (Species/Cell Type: Nonhuman, Assay Type: Sister-chromatid exchange (SCE) in vitro, Assay Code: SC2-, Evaluation Type: Evaluation A (Pre-1980)) does the source give for CC(=O)c1c(=O)cc(C)oc1=O here?
Answer: inactive; negative

Question: What about the mutagenic call [7] of the same compound?
Answer: no conclusion

Question: Which mutagenic call (Species/Cell Type: Drosophila melanogaster, Assay Type: Sex-linked recessive lethal gene mutation, Assay Code: SRLT, Evaluation Type: Evaluation A (Pre-1980)) does the source give for Nc1ccc2nc3ccc(N)cc3[n+](-c3ccccc3)c2c1 here?
Answer: no conclusion

Question: For O=CNc1nc(-c2ccc([N+](=O)[O-])o2)cs1, which mutagenic call (Species/Cell Type: Bacillus subtilis (H17 vs M45), Assay Type: Rec-assay, spot test, DNA effects (bacterial DNA repair), Assay Code: REW+, Evaluation Type: Evaluation A (Pre-1980)) is on record?
Answer: active; positive

Question: What about the mutagenic call (Species/Cell Type: Escherichia coli WP2, Assay Type: Tryptophan reverse gene mutation, Assay Code: WP2+, Evaluation Type: Evaluation A (Pre-1980)) of the same compound?
Answer: active; positive

Question: And the mutagenic call (Species/Cell Type: Escherichia coli WP2 UVRA, Assay Type: Tryptophan reverse gene mutation, Assay Code: WPU+D, Dose Response: With dose response, Evaluation Type: Evaluation A (Pre-1980))?
Answer: active; positive

Question: And the mutagenic call [1]?
Answer: active; positive

Question: And the mutagenic call [2]?
Answer: active; positive

Question: And the mutagenic call (Species/Cell Type: Mouse, Sex: Male, Assay Type: Sperm morphology, Assay Code: SPIT, Evaluation Type: Evaluation A (Pre-1980))?
Answer: no conclusion

Question: And the mutagenic call (Species/Cell Type: Neurospora crassa, Assay Type: Forward gene mutation, Assay Code: NEF+, Evaluation Type: Evaluation A (Pre-1980))?
Answer: active; positive

Question: What about the mutagenic call [3] of the same compound?
Answer: active; positive

Question: And the call (Species/Cell Type: Nonhuman, Assay Code: CCG+, Evaluation Type: Evaluation A (Pre-1980))?
Answer: active; positive

Question: And the mutagenic call (Species/Cell Type: Nonhuman, Assay Type: Sister-chromatid exchange (SCE) in vitro, Assay Code: SC2+D, Dose Response: With dose response, Evaluation Type: Evaluation B (Post-1980))?
Answer: active; positive

Question: And the mutagenic call [8]?
Answer: active; positive

Question: And the mutagenic call [4]?
Answer: active; positive

Question: What about the mutagenic call [5] of the same compound?
Answer: active; positive

Question: And the mutagenic call (Species/Cell Type: Salmonella typhimurium and Saccharomyces cerevisiae, Assay Type: Forward and reverse gene mutation, mitotic recombination and gene conversion, DNA effects, body fluid assay, Assay Code: BFG+, Evaluation Type: Evaluation A (Pre-1980))?
Answer: active; positive

Question: What about the mutagenic call (Species/Cell Type: Salmonella typhimurium, Saccharomyces cerevisiae, Assay Type: Forward and reverse gene mutation, mitotic recombination and gene conversion, DNA effects, host-mediated assay, Assay Code: HM3+, Evaluation Type: Evaluation A (Pre-1980)) of the same compound?
Answer: active; positive

Question: What about the mutagenic call [6] of the same compound?
Answer: active; positive

Question: For NC1=NC(=O)NC(=O)C1, which mutagenic call (Species/Cell Type: Vicia faba, Assay Type: Chromosome aberrations, Assay Code: VIC+, Evaluation Type: Evaluation A (Pre-1980)) is on record?
Answer: active; positive

Question: COc1ccc(Cn2ccnc2/C=C/c2ccc([N+](=O)[O-])o2)cc1 was tested. Which mutagenic call [3] did it give?
Answer: active; positive
